Test results as given in paper PMC9413739, “Tri- and Pentacyclic Azaphenothiazine as Pro-Apoptotic Agents in Lung Carcinoma with a Protective Potential to Healthy Cell Lines” (Molecules, 2022).
Values joined by “and” are separate entries in the source; they are usually repeats but may differ in a detail not shown here. Identical values can stand only once.

Experiments:
[1] = test system: H1299 cells; assay: Annexin-V apoptosis assay with PI staining, H1299; type: cell-based, human; conditions: H1299, 50 µM, 72 h
Description: (§1) Followed by Annexin-V apoptosis assay after 72 h of incubation with DPT-1 and DPT-2 at a dose of 50 µM, the type of cellular death is possible to determine (Figure 6 and Figure 7). […] After 72 h of incubation of cells in both controls, some of the early and late apoptotic cells were observable, without necrotic ones.
(§2) Many drugs work by inhibiting cell proliferation and causing cell cycle blockage. Using flow cytometry, the impact of new compounds on the cell cycle were determined. Cells incubated with compound were also analyzed for cellular death pathways, apoptosis induction, followed by Annexin-V assay. Annexin-V is a protein that binds phosphatidylserine and allows early detection of apoptosis; additionally, iodium propide staining distinguishes it from necrosis. For apoptosis and cell cycle assays the cell cultures were plated in 6-well plates at a confluence of 1 × 10^5 in 2 mL of completed fresh DMEM-F12 medium, 24 h before drugs addition. An Aria III flow cytometer (Becton Dickinson; Franklin Lakes, NJ, USA) was used. The flow cytometry analysis was done on a free Flowing Software 2.5.1 program (by Perttu Terho, the Cell Imaging and Cytometry Core, Turku Bioscience Centre, Turku, Finland, with the support of Biocenter Finland).

[2] = test system: glioblastoma SNB-19, melanoma C-32, and breast cancer MCF-7 cell lines; parameters: method as in PMID 26950280; conditions: SNB-19, C-32 and MCF-7 cell lines; cited from earlier work
[3] = test system: NHDF; assay: MTT viability assay, NHDF; type: cell-based; conditions: Homo sapiens, 72 h of incubation, mean of three experiments ± SD
Description: (§3) A standard anticancer drug, such as doxorubicin, was simultaneously used at the same concentrations range: 100, 50, 25, 12.5, 6.25, 3.15, 1.56 µM.
(§4) Biological experiments were conducted on a panel of cancer cell lines, adenocarcinoma human alveolar basal epithelial cells (A549), and human non-small cell lung carcinoma cell line (H1299). In order to determine the potential side effects of treatments, research was performed simultaneously on the human bronchial epithelial cells (BEAS-2B) and normal human dermal fibroblasts (NHDF); all cells received were received from the ATCC collections (Manassas, VA, USA). Cells were grown in DMEM F-12 medium (PAA, Warsaw, Poland) supplemented with 10% (v/v) heat-inactivated FBS (Eurx, Gdańsk, Poland) and 100 units/mL penicillin and 100 μg/mL streptomycin (Sigma-Aldrich, Darmstadt, Germany) at 37 °C in a humidified atmosphere with 5% CO2 [23, 27, 29].
(§5) Examination of cytotoxicity using MTT assay is the most convenient and fastest method for screening of cytotoxic action of the drugs. MTT assay is a colorimetric method for evaluation of cell viability based on mitochondrial dehydrogenase enzyme activity. The survival rate of the cells was calculated relative to the control cells, grown in standard conditions. Using this assay, IC50 values were calculated for each cell line treated with standard compounds and drugs. For […] assay, cells were seeded in 96-well plates at 1 × 10^4 cells/well in 0.2 mL completed medium 24 h before drug treatment. In the next step, cells were incubated for 72 h with the compounds (doses: 100; 50; 25; 12.5; 6.25; 3.15 and 1.56 µM) and then were washed three times with PBS (PAA, Laboratories GmbH, Cölbe, Germany). […] The levels of absorbance were measured at a wavelength of λ = 570 nm using a microplate spectrophotometer (Epoch; BioTek, Winooski, VT, USA) and expressed as a % of the untreated control, named the survival fraction [SF] […]

[4] = test system: BEAS-2B; assay: MTT viability assay, BEAS-2B; type: cell-based; conditions: Homo sapiens, 72 h of incubation, mean of three experiments ± SD
Description: as §3, §4, §5

[5] = test system: H1299; assay: MTT viability assay, H1299; type: cell-based; conditions: Homo sapiens, NCI-H1299, H1299, 72 h of incubation, mean of three experiments ± SD
Description: as §3, §4, §5

[6] = test system: A549 cells; assay: Cell cycle analysis via flow cytometry, A549; type: cell-based, human; conditions: A549, 50 µM, 72 h
Description: A lowered viability, followed by the MTT assay, could be a perfect indicator of the anticancer potential of drugs. However, this procedure measures the mitochondrial activity of the enzymatic complex. The real cytotoxicity against the antiproliferative action of drugs could be distinguished using the next step procedure, a cytometric cell cycle distribution, compared to the untreated controls. For that reason, the cell cycle was measured, followed by 72 h of incubation with DPT-1 and DPT-2. High doses of phenothiazines (50 µM) arrested the cell cycle at different phases, dependent on the cancer cell line. […] The phenomenon of sub-G1 phase reduction (lowered necrotic/apoptotic and general dead cells fraction), in comparison to the untreated control, could be explained by the cytostatic potential of phenothiazines. […] The MTT estimations of cells viability, calculated from the lowered absorbance, resulted from the antiproliferative and cytostatic role of DPT-1 and DPT-2 in the A549 cell line for S and G2/M cell cycle phases.
Many drugs work by inhibiting cell proliferation and causing cell cycle blockage. Using flow cytometry, the impact of new compounds on the cell cycle were determined. Cells incubated with compound were also analyzed for cellular death pathways, apoptosis induction, followed by Annexin-V assay. […]

[7] = test system: normal fibroblast HFF-1 cell line; parameters: method as in PMID 26950280; conditions: cited from earlier work
[8] = test system: A549 cells; assay: Live Cell Analyzer microscopic observation, A549; type: cell-based, human; conditions: 72 h; for survival fraction in comparison to the untreated controls: A549, 50 µM, images; for morphological observation: A549, 100 µM
Source text: (§6) The cells stayed mostly unattached and floating with some shrunken, which indicates a late stage of apoptosis and necrosis. Using cancer cell lines A549 and H1299, the cellular apoptotic and necrotic death was confirmed, followed by cell cycle cytometric analysis for the sub-G1 fraction (please compare Figure 4 and Figure 5). […] Such observations additionally explained the results of Annexin-V apoptosis assays, where some of the cells, mainly carcinomas, presented an early apoptosis fraction (Figure 6, Figure 7 and Figure 8).
(§7) Microscopic observation and images acquisition with Live Cell Analyzer (JuLI™ Br; NanoEnTek Inc., Seoul, Korea) was used to directly observe on-plate confluence, density, and cell viability and images acquisitions.

[9] = test system: human lung carcinoma A549 and non-small lung carcinoma H1299; assay: MTT viability assay, summary over lung carcinoma lines; type: cell-based; conditions: range over DPT-1 and DPT-2 in A549 and H1299
Source text: DPT-1 and DPT-2 initiated a biological response in the investigated cancer models with a different mechanism and at a different rate. Based on these findings, it can be concluded that DPT-1 and DPT-2 have potential as chemotherapeutic agents.
as §5

[10] = test system: A549 cells; assay: Annexin-V apoptosis assay with PI staining, A549; type: cell-based, human; conditions: 72 h; for type of cellular death at lower doses: A549, 0.78–12.5 µM; for type of cellular death at higher doses: A549, 25–100 µM
Description: as §1, §2

[11] = test system: H1299 cells; assay: Cell cycle analysis via flow cytometry, H1299; type: cell-based, human; conditions: H1299, 50 µM, 72 h
Description: as §2

[12] = test system: A2780 ovarian cancer cells; parameters: method as in PMID 29123378; conditions: A2780, dose-dependent inhibition; cited from earlier work
[13] = test system: normal heart H9C2 cells; parameters: method as in PMID 29123378; conditions: cited from earlier work
[14] = test system: BEAS-2B cells; assay: Live Cell Analyzer microscopic observation, BEAS-2B; type: cell-based, human; conditions: 72 h; for survival fraction in comparison to the untreated controls: 50 µM, images; for morphological observation: 100 µM
Source text: as §6, §7

[15] = test system: A549; assay: MTT viability assay, A549; type: cell-based; conditions: Homo sapiens, A549, 72 h of incubation, mean of three experiments ± SD
Description: as §3, §4, §5

[16] = test system: normal kidney HEK293 cells; parameters: method as in PMID 29123378; conditions: cited from earlier work
[17] = test system: normal human dermal fibroblasts NHDF; parameters: method as in PMID 30981160; conditions: cited from earlier work
[18] = test system: glioblastoma SNB-19, colorectal carcinoma Caco-2, breast cancer MDA-MB-231, and lung cancer A549 cell lines; parameters: method as in PMID 30981160; conditions: range over SNB-19, Caco-2, MDA-MB-231 and A549; cited from earlier work

Structure (SMILES) | type of cellular death [1] | IC50 [3] [µM] | IC50 [4] [µM] | IC50 [5] [µM] | cell cycle arrest [6] | survival fraction in comparison to the untreated controls [8] | morphological observation [8] | IC50 [9] [µM] | type of cellular death ([10]; A549, 50 µM) | type of cellular death at lower doses [10] | type of cellular death at higher doses [10] | cell cycle effect [11] | survival fraction in comparison to the untreated controls [14] | morphological observation [14] | IC50 [15] [µM] | other results
c1cnc2c(c1)Nc1ccncc1S2 [DPT-1, 10H-3,6-diazaphenothiazine] | pro-apoptotic activity | 2.246 ± 0.01 | 2.468 ± 0.01 | 2.515 ± 0.005 | S and G2/M arrest | 5–30% | typical morphological changes for cellular death | 1.52 to 12.9 | pro-apoptotic activity | necrosis is visible | induced cellular death via an apoptosis pathway | cell cycle is stopped in the G0/G1-phase | 5–30% | typical morphological changes for cellular death | 1.526 ± 0.004 | cells apoptotic (late apoptotic fraction, Annexin-V+/PI+) [1]: ~90%; IC50 [2]: 0.46 µg/mL and 0.72 µg/mL; action against normal cells [7]: non-toxic action; cells apoptotic (late apoptotic fraction, Annexin-V+/PI+) ([10]; A549, 50 µM): ~90%; IC50 [12]: 0.62 µM; cytotoxicity compared with A2780 [13]: significantly less cytotoxicity; cytotoxicity compared with A2780 [16]: significantly less cytotoxicity
CN(C)CCCN1c2cnc3ccccc3c2Sc2cc3ccccc3nc21 [DPT-2, 7-(3′-dimethylaminopropyl)diquinothiazine] | induced apoptosis, as well as necrosis | 18.77 ± 0.038 | 11.26 ± 0.038 | 12.89 ± 0.013 | S and G2/M arrest | 5–30% | typical morphological changes for cellular death | 1.52 to 12.9 | induced apoptosis, as well as necrosis | induced early apoptosis | induced toxic, necrotic death | strong cytotoxic effect | 5–30% | typical morphological changes for cellular death | 3.45 ± 0.054 | tested population necrotic (Annexin-V−/PI+) [1]: circa 30%; cytotoxicity against normal cells [17]: low cytotoxicity; tested population necrotic (Annexin-V−/PI+) ([10]; A549, 50 µM): circa 30%; IC50 [18]: 0.3 to 3.44 µM
COc1cccc2c1C(=O)c1c(O)c3c(c(O)c1C2=O)C[C@@](O)(C(=O)CO)C[C@@H]3O[C@H]1C[C@H](N)[C@H](O)[C@H](C)O1 [doxorubicin, reference compound] |  | > 100 | < 1.56 | 7.749 ± 0.004 |  |  |  |  |  |  |  |  |  |  | 5.289 ± 0.004 | 
